Results from ChEMBL document CHEMBL2073753, “Steroid and bile acid conjugates are substrates of human multidrug-resistance protein (MRP) 4 (ATP-binding cassette C4)” (Biochem J, 2003).

Experiments:
[1] = target: T1, ATP-binding cassette sub-family C member 4 (Homo sapiens, UniProt O15439); assay: TP_TRANSPORTER: inhibition of E217betaG uptake in membrane vesicles from MRP4-expressing HEK-293 cells; type: functional, cell membranes, HEK293, Membrane vesicle
T1 sequence (O15439 whole entry): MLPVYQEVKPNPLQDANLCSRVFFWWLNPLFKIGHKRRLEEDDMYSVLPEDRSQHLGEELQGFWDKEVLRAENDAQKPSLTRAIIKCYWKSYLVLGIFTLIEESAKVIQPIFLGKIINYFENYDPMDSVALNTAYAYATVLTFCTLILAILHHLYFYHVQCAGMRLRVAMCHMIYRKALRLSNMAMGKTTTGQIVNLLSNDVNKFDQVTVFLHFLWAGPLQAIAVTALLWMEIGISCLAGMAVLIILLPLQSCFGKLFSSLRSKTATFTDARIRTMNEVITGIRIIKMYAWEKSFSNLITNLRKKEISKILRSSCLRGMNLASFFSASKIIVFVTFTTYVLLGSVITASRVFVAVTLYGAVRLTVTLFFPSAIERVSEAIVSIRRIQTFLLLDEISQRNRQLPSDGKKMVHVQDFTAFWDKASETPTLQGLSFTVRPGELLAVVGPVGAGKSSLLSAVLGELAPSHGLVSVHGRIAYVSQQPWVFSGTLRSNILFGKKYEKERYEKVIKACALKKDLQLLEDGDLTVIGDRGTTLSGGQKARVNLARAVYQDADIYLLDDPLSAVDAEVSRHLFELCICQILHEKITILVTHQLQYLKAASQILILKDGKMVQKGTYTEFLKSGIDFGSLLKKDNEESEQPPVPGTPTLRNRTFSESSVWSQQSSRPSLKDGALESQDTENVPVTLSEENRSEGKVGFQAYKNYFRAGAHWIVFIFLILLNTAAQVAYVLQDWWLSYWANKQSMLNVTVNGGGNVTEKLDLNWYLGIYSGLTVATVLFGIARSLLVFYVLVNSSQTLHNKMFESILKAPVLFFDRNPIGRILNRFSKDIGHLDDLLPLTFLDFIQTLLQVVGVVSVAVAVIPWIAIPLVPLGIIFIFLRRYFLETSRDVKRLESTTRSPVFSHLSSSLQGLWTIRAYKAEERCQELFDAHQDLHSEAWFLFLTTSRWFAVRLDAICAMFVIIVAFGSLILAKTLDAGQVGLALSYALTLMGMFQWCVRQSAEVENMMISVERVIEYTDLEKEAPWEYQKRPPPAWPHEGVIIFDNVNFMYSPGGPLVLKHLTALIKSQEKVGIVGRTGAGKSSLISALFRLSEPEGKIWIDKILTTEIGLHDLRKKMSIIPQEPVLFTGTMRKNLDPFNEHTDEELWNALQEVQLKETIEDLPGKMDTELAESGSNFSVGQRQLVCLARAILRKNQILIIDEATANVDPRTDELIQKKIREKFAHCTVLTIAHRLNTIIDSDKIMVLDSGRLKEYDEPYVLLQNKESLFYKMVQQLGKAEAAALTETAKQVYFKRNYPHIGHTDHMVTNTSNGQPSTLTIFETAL

[2] = target: T1, ATP-binding cassette sub-family C member 4; assay: TP_TRANSPORTER: inhibition of E217betaG uptake in membrane vesicles from MRP4-expressing Sf9 cells; type: functional, cell membranes, Membrane vesicle
[3] = target: T1, ATP-binding cassette sub-family C member 4; assay: TP_TRANSPORTER: inhibition of DHEAS in membrane vesicles from MRP4-expressing Sf9 cells; type: functional, cell membranes, Membrane vesicle

SMILES	IC50 [1] [µM]	IC50 [2] [µM]	IC50 [3] [µM]
C[C@H](CCC(=O)NCC(=O)O)[C@H]1CC[C@H]2[C@@H]3CC[C@@H]4C[C@H](OS(=O)(=O)O)CC[C@]4(C)[C@H]3CC[C@]12C	10	–	–
C[C@]12CC[C@@H]3c4ccc(O[C@@H]5O[C@H](C(=O)O)[C@@H](O)[C@H](O)[C@H]5O)cc4CC[C@H]3[C@@H]1CC[C@@H]2O	–	120	80
C[C@H](CCC(=O)NCCS(=O)(=O)O)C1CC[C@H]2[C@@H]3CC[C@@H]4C[C@H](OS(=O)(=O)O)CC[C@]4(C)[C@H]3CC[C@]12C (stereo partly drawn)	10	–	–
C[C@]12CC[C@H](O[C@@H]3O[C@H](C(=O)O)[C@@H](O)[C@H](O)[C@H]3O)CC1=CC[C@@H]1[C@@H]2CC[C@]2(C)C(=O)CC[C@@H]12	–	80	80
C[C@H](CCC(=O)O)[C@H]1CC[C@H]2[C@@H]3CC[C@@H]4C[C@H](OS(=O)(=O)O)CC[C@]4(C)[C@H]3CC[C@]12C	10	–	–
C[C@]12CC[C@@H]3c4ccc(OS(=O)(=O)O)cc4CC[C@H]3[C@@H]1CC[C@H]2O	–	50	70
C[C@]12CC[C@@H]3c4ccc(O)cc4CC[C@H]3[C@@H]1CC[C@@H]2O[C@@H]1O[C@H](C(=O)O)[C@@H](O)[C@H](O)[C@H]1O [ESTRADIOL 17B GLUCURONIDE]	–	–	30
C[C@]12CC[C@@H]3c4ccc(OS(=O)(=O)O)cc4CC[C@H]3[C@@H]1CC[C@@H]2OS(=O)(=O)O [ESTRADIOL DISULFATE]	–	2	0.2
C[C@]12CC[C@@H]3c4ccc(OS(=O)(=O)O)cc4CC[C@H]3[C@@H]1CCC2=O [ESTRONE SULFURIC ACID]	–	45	95
C[C@H](CCC(=O)NCC(=O)O)[C@H]1CC[C@H]2[C@@H]3[C@H](O)C[C@@H]4C[C@H](O)CC[C@]4(C)[C@H]3C[C@H](O)[C@]12C [GLYCOCHOLIC ACID]	400	–	–
C[C@H](CCC(=O)NCCS(=O)(=O)O)[C@H]1CC[C@H]2[C@@H]3[C@H](O)C[C@@H]4C[C@H](O)CC[C@]4(C)[C@H]3CC[C@]12C [TAUROCHENODEOXYCHOLATE]	55	–	–
C[C@H](CCC(=O)NCCS(=O)(=O)O)[C@H]1CC[C@H]2[C@@H]3CC[C@@H]4C[C@H](O)CC[C@]4(C)[C@H]3C[C@H](O)[C@]12C [TAURODEOXYCHOLIC ACID]	60	–	–
C[C@H](CCC(=O)NCCS(=O)(=O)O)[C@H]1CC[C@H]2[C@@H]3CC[C@@H]4C[C@H](O)CC[C@]4(C)[C@H]3CC[C@]12C [TAUROLITHOCHOLIC ACID]	20	–	–
